The series in a line: Aggregate number from ratio of molecular weights at pH 7 and pH 13 (GPC fractions). In kind it is physicochemical. The protocol: The aggregate number of a β-glucan sample under a specified set of conditions can be determined by determining the average molecular weight of the polymer under those conditions. The β-glucan is then denatured, that is, subjected to conditions which separate any aggregates into their component single polymer chains. The average molecular weight of the denatured polymer is then determined. The ratio of the molecular weights of the aggregated and denatured forms of the polymer is the aggregate number. A typical β-glucan composition includes molecules having a range of chain lengths, conformations and molecular weights. Thus, the measured aggregate number of a β-glucan composition is the mass average aggregate number across the entire range of β-glucan molecules within the composition. […] For example, a measured aggregate number of about 6 or more is characteristic of a composition in which the β-glucan is substantially in the triple helix aggregate conformation. […]
The molecular weights of fractions A and C were determined at 25° C. at both pH 7 and pH 13, and at 37° C. at pH 7. […] Thus, at a given temperature the ratio of the molecular weights determined at pH 7 and pH 13 is the aggregate number at pH 7 at that temperature. […]

As for scleroglucan, the aggregate number result (pH 7, 25° C.) was “about 3” and the aggregate number entry (pH 7, 37° C.) is “about 3”.

Values taken from US20070059310A1, “Therapeutic combination compositions and methods of using same” (priority 2005, published 2007).
